Results published in patent US10131653B2, “Heterocyclic compound” (TAKEDA PHARMACEUTICAL COMPANY LIMITED, priority 2015, dated 2018).
Where a name gives a salt, the structure may show the parent alone.

What was measured:
[1] = biological target: T1, human OX1 receptor (Homo sapiens, UniProt O43613); test: Measurement of orexin receptor antagonistic activity (calcium fluorescence, FLIPRtetra); assay type: cell-based; conditions: CHO, 10 μM test compound; CHO cells expressing human OX1 receptor; OX-A 1 nM; read-out: Human Orexin1 receptor inhibition (at 10 μM)
T1 construct: expressed in transfected cells; host or cells: CHO cells
T1 sequence (O43613 1-425): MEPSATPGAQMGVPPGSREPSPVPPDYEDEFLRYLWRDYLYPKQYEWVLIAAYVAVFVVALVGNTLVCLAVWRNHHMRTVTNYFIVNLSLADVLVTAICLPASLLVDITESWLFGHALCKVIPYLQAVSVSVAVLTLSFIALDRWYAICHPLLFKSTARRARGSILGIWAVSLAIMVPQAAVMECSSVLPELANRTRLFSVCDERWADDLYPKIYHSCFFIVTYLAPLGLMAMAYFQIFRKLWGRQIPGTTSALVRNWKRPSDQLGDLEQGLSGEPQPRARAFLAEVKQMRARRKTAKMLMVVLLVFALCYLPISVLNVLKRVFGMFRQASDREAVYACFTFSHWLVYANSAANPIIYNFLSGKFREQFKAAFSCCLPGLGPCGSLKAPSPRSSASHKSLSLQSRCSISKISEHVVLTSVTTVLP
In short: (§1)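 Calcium fluorescence measured by FLIPRtetra every second for 2 min after orexin-A challenge, 1 nM final for OX1 and 0.3 nM final for OX2. Receptor-expressing CHO cells received compound in HEPES-buffered HBSS with 0.1% BSA just before agonist.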

[2] = biological target: T2, human OX2 receptor (Homo sapiens, UniProt O43614); test: as above; assay type: cell-based; conditions: CHO, 10 μM test compound; CHO cells expressing human OX2 receptor; OX-A 0.3 nM; read-out: Human Orexin2 receptor inhibition (at 10 μM)
T2 construct: expressed in transfected cells; host or cells: CHO cells
T2 sequence (O43614 1-444): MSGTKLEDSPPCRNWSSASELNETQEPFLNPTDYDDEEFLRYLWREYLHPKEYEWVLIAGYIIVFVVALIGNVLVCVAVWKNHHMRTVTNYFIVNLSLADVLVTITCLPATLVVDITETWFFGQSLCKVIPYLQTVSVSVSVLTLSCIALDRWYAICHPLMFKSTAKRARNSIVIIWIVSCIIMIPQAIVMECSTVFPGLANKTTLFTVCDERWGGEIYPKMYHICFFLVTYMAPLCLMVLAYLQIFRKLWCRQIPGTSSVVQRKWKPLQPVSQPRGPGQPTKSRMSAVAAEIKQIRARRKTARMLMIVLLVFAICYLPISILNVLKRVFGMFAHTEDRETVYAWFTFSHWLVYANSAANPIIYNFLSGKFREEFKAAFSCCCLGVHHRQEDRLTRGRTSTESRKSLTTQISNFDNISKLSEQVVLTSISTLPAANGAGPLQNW
In short: as §1

Row | Structure (SMILES) | inhibition at 10 µM [1] | inhibition at 10 µM [2]
1 | Cc1nc(N2CCN(C(=O)c3ccccc3-c3nccs3)C[C@H](C)O2)cc(C(F)(F)F)n1 [Example 85, ((7S)-7-methyl-2-(2-methyl-6-(trifluoromethyl)pyrimidin-4-yl)-1,2,5-oxadiazepan-5-yl)(2-(1,3-thiazol-2-yl)phenyl)methanone] | 98% | 102%
2 | Cc1cc(N2CCN(C(=O)c3cc(F)ccc3-c3nccs3)C[C@H](C)O2)nc(C)n1 [Example 87, ((7S)-2-(2,6-dimethylpyrimidin-4-yl)-7-methyl-1,2,5-oxadiazepan-5-yl)(5-fluoro-2-(1,3-thiazol-2-yl)phenyl)methanone hydrochloride] | 81% | 102%
3 | Cc1cc(N2CCN(C(=O)c3cc(Cl)ccc3-c3nccs3)C[C@H](C)O2)nc(C)n1 [Example 88, (5-chloro-2-(1,3-thiazol-2-yl)phenyl)((7S)-2-(2,6-dimethylpyrimidin-4-yl)-7-methyl-1,2,5-oxadiazepan-5-yl)methanone hydrochloride] | 101% | 99%
4 | Cc1cccc(N2CCN(C(=O)c3ccccc3-c3nccs3)C[C@H](C)O2)n1 [Example 89, ((7S)-7-methyl-2-(6-methylpyridin-2-yl)-1,2,5-oxadiazepan-5-yl) (2-(1,3-thiazol-2-yl)phenyl)methanone] | 101% | 97%
5 | C[C@H]1CN(C(=O)c2ccccc2-c2nccs2)CCN(c2ccc(Cl)cn2)O1 [Example 90, ((7S)-2-(5-chloropyridin-2-yl)-7-methyl-1,2,5-oxadiazepan-5-yl)(2-(1,3-thiazol-2-yl)phenyl)methanone] | 101% | 96%
6 | Cc1cc(C)nc(N2CCN(C(=O)c3ccccc3-c3nccs3)C[C@H](C)O2)c1 [Example 91, ((7S)-2-(4,6-dimethylpyridin-2-yl)-7-methyl-1,2,5-oxadiazepan-5-yl)(2-(1,3-thiazol-2-yl)phenyl)methanone] | 100% | 100%
7 | Cc1nc(N2CCN(C(=O)c3ccccc3-n3nccn3)C[C@H](C)O2)cc(C(F)(F)F)n1 [Example 92, ((7S)-7-methyl-2-(2-methyl-6-(trifluoromethyl)pyrimidin-4-yl)-1,2,5-oxadiazepan-5-yl)(2-(2H-1,2,3-triazol-2-yl)phenyl)methanone] | 73% | 101%
8 | Cc1nc(C(F)F)cc(N2CCN(C(=O)c3ccccc3-n3nccn3)C[C@H](C)O2)n1 [Example 93, ((7S)-2-(6-(difluoromethyl)-2-methylpyrimidin-4-yl)-7-methyl-1,2,5-oxadiazepan-5-yl) (2-(2H-1,2,3-triazol-2-yl)phenyl)methanone] | 72% | 100%
9 | Cc1cc(N2CCN(C(=O)c3ccccc3-n3nccn3)C[C@H](C)O2)nc(C(F)(F)F)n1 [Example 94, ((7S)-7-methyl-2-(6-methyl-2-(trifluoromethyl)pyrimidin-4-yl)-1,2,5-oxadiazepan-5-yl) (2-(2H-1,2,3-triazol-2-yl)phenyl)methanone] | 106% | 104%
10 | C[C@H]1CN(C(=O)c2ccccc2-n2nccn2)CCN(c2cc(C(F)F)nc(C3CC3)n2)O1 [Example 95, ((7S)-2-(2-cyclopropyl-6-(difluoromethyl)pyrimidin-4-yl)-7-methyl-1,2,5-oxadiazepan-5-yl) (2-(2H-1,2,3-triazol-2-yl)phenyl)methanone] | 100% | 97%
11 | C[C@H]1CN(C(=O)c2ccccc2-n2nccn2)CCN(c2cc(C3CC3)nc(C3CC3)n2)O1 [Example 96, ((7S)-2-(2,6-dicyclopropylpyrimidin-4-yl)-7-methyl-1,2,5-oxadiazepan-5-yl) (2-(2H-1,2,3-triazol-2-yl)phenyl)methanone] | 98% | 98%
12 | C[C@H]1CN(C(=O)c2ccccc2-n2nccn2)CCN(c2cc(C(F)(F)F)nc(C3CC3)n2)O1 [Example 97, ((7S)-2-(2-cyclopropyl-6-(trifluoromethyl)pyrimidin-4-yl)-7-methyl-1,2,5-oxadiazepan-5-yl) (2-(2H-1,2,3-triazol-2-yl)phenyl)methanone] | 95% | 100%
13 | C[C@H]1CN(C(=O)c2ccccc2-n2nccn2)CCN(c2ccc(Cl)cn2)O1 [Example 98, ((7S)-2-(5-chloropyridin-2-yl)-7-methyl-1,2,5-oxadiazepan-5-yl) (2-(2H-1,2,3-triazol-2-yl)phenyl)methanone] | 97% | 104%
14 | C[C@H]1CN(C(=O)c2ccccc2-n2nccn2)CCN(c2ccn3nccc3n2)O1 [Example 99, ((7S)-7-methyl-2-(pyrazolo[1,5-a]pyrimidin-5-yl)-1,2,5-oxadiazepan-5-yl)(2-(2H-1,2,3-triazol-2-yl)phenyl)methanone] | 87% | 98%
15 | Cc1nc(C(F)F)cc(N2CCN(C(=O)c3cc(F)ccc3-n3nccn3)C[C@H](C)O2)n1 [Example 100, ((7S)-2-(6-(difluoromethyl)-2-methylpyrimidin-4-yl)-7-methyl-1,2,5-oxadiazepan-5-yl)(5-fluoro-2-(2H-1,2,3-triazol-2-yl)phenyl)methanone] | 42% | 102%
16 | Cc1nc(N2CCN(C(=O)c3cc(F)ccc3-n3nccn3)C[C@H](C)O2)cc(C(F)(F)F)n1 [Example 101, (5-fluoro-2-(2H-1,2,3-triazol-2-yl)phenyl)((7S)-7-methyl-2-(2-methyl-6-(trifluoromethyl)pyrimidin-4-yl)-1,2,5-oxadiazepan-5-yl)methanone] | 50% | 101%
17 | Cc1nc(C(F)F)cc(N2CCN(C(=O)c3cc(Cl)ccc3-n3nccn3)C[C@H](C)O2)n1 [Example 103, (5-chloro-2-(2H-1,2,3-triazol-2-yl)phenyl)((7S)-2-(6-(difluoromethyl)-2-methylpyrimidin-4-yl)-7-methyl-1,2,5-oxadiazepan-5-yl)methanone] | 90% | 100%
18 | Cc1cc(N2CCN(C(=O)c3cc(Cl)ccc3-n3nccn3)C[C@H](C)O2)nc(C(F)(F)F)n1 [Example 104, (5-chloro-2-(2H-1,2,3-triazol-2-yl)phenyl)((7S)-7-methyl-2-(6-methyl-2-(trifluoromethyl)pyrimidin-4-yl)-1,2,5-oxadiazepan-5-yl)methanone] | 104% | 96%
19 | C[C@H]1CN(C(=O)c2cc(Cl)ccc2-n2nccn2)CCN(c2cc(C(F)F)nc(C3CC3)n2)O1 [Example 105, (5-chloro-2-(2H-1,2,3-triazol-2-yl)phenyl)((7S)-2-(2-cyclopropyl-6-(difluoromethyl)pyrimidin-4-yl)-7-methyl-1,2,5-oxadiazepan-5-yl)methanone] | 96% | 98%
20 | Cc1cc(N2CCN(C(=O)c3cc(F)c(F)cc3-n3nccn3)C[C@H](C)O2)nc(C)n1 [Example 106, (4,5-difluoro-2-(2H-1,2,3-triazol-2-yl)phenyl)((7S)-2-(2,6-dimethylpyrimidin-4-yl)-7-methyl-1,2,5-oxadiazepan-5-yl)methanone] | 38% | 99%
21 | Cc1nc(N2CCN(C(=O)c3cc(F)c(F)cc3-n3nccn3)C[C@H](C)O2)cc(C(F)(F)F)n1 [Example 107, (4,5-difluoro-2-(2H-1,2,3-triazol-2-yl)phenyl)((7S)-7-methyl-2-(2-methyl-6-(trifluoromethyl)pyrimidin-4-yl)-1,2,5-oxadiazepan-5-yl)methanone] | 37% | 94%
22 | Cc1cc(N2CCN(C(=O)c3cc(F)c(F)cc3-n3nccn3)C[C@H](C)O2)nc(C(F)(F)F)n1 [Example 108, (4,5-difluoro-2-(2H-1,2,3-triazol-2-yl)phenyl)((7S)-7-methyl-2-(6-methyl-2-(trifluoromethyl)pyrimidin-4-yl)-1,2,5-oxadiazepan-5-yl)methanone] | 100% | 101%
23 | Cc1cc(N2CCN(C(=O)c3ccccc3-c3ncccn3)C[C@H](C)O2)nc(C)n1 [Example 109, ((7S)-2-(2,6-dimethylpyrimidin-4-yl)-7-methyl-1,2,5-oxadiazepan-5-yl)(2-(pyrimidin-2-yl)phenyl)methanone] | 85% | 101%
